Measurements published in patent publication US7884124B2, “Fluoro-substituted inhibitors of D-amino acid oxidase” (Sepracor Inc., priority 2006, dated 2011).

Assays:
Chung model rats = experiment: Chung model (L5 spinal nerve ligation), paw withdrawal threshold with von Frey hairs; format: in vivo, rat
Method: Adult male Sprague-Dawley rats, weighing 200-230 g at the time of surgery, were used. They were housed in groups of 4 in an air-conditioned room on a 12 h light/dark cycle. Food and water were available ad libitum. The animals were allowed to acclimatize to the experimental environment for three days by leaving them on a lifted metal mesh for at least 40 min. The baseline paw withdrawal threshold (PWT) was examined using a series of graduated von Frey hairs for 3 consecutive days before surgery and re-assessed on the 7th day after surgery and on the 11th to 14th day before drug dosing. The rat Chung model was prepared as described by Kim and Chung (1992). The rat was anaesthetized with 5% isoflurane mixed with oxygen (2 L per min) followed by an i.p. injection of sodium pentobarbitone at 50 mg/kg. The back was shaved and sterilized with 75% ethanol. The animal was placed in a prone position and a para-medial incision was made on the skin covering L4-6 level. The L5 spinal nerve was carefully isolated and tightly ligated with 6/0 silk suture. The wound was then closed in layers after a complete hemostasis. A single dose of antibiotics (Amoxipen 15 mg/rat, ip) was routinely given for prevention of infection after surgery. The animals were placed in a temperature controlled recovery chamber until fully awake before being returned to the home cage. The animals were placed in individual Perspex boxes on a raised metal mesh for at least 40 min before the test. Starting with the filament of lowest force, each filament was applied perpendicularly to the centre of the ventral surface of the paw until slightly bent for 6 seconds. If the animal withdrew or lifted the paw upon stimulation, then a hair with force immediately lower than that tested was used. If no response was observed, then a hair with force immediately higher was tested. The lowest amount of force required to induce reliable responses (positive in 3 out of 5 trials) was recorded as the value of PWT. Only those animals with significant allodynia (PWT≦3.5 g) were selected for drug dosing experiments. The rats in a neuropathic pain state were randomly divided into experimental groups: Vehicle group and 1 group had 8 rats and the gabapentin group had 9 rats. The drug test was carried out 12 to 14 days after surgery. Isotonic 50 mM phosphate buffer (PB), dosed orally at 3 mL/kg, served as the vehicle control. Gabapentin was dissolved in normal saline and given orally at 100 mg/kg. […] The PWT was assessed at 1, 3, 6 and 24 h following drug or vehicle administration. The animals were returned to their home cage for a break (about 30 min) between two neighboring testing time points. One-way analysis of variance (ANOVA) (SPSS software) was used for statistical analysis to compare different groups on the same time points. Paired Student-t test was used to compare different time points in the same group. The significance level was set at P<0.05.

C57BL/6 male mice = experiment: Contextual fear conditioning (freezing 24 hours after training); format: in vivo
Description: Young-adult C57BL/6 male mice were used. Mice were received at 6-7 weeks of age. Upon arrival, mice were assigned unique identification numbers (tail marked) and were group housed in polycarbonate cages with filter tops. All mice were acclimated to the colony room for at least four weeks prior to testing and were subsequently tested at an average age of 10-12 weeks of age. During the period of acclimation, mice were examined on a regular basis, handled, and weighed to assure adequate health and suitability. Mice were maintained on a 12/12 light/dark cycle with the light on at 6:00 a.m. The experiments were always conducted during the light phase of the cycle. The day before the initiation of the experiment, mice were housed single in individual cages and maintained so till the end of the experiment. Animals were randomly assigned across treatment groups. With the exception of testing times, the mice had ad lib access to food and water. Rolipram (0.1 mg/kg) was dissolved in 1% DMSO i.p. 20 min prior to training at a dose volume of 8 ml/kg. To assess contextual conditioning, we use a standardized contextual fear conditioning task originally developed for evaluation of memory in CREB mutant mice (Bourtchouladze, R. et al.; Cell 1994, 79, 59-68). Specifically, on the training day, the mouse is placed into the conditioning chamber for 2 minutes before the onset of the unconditioned stimulus (US), a 0.75 mA foot shock of 2 seconds duration. The US is repeated two times with a 1 min inter-trial interval between shocks. Training is performed using an automated software package. After the last training trial, a mouse is left in the conditioning chamber for another 30 sec and then placed back in its home cage. Contextual memory is tested 24 hours after training. The mouse is placed into the same training chamber and conditioning is assessed by scoring freezing behavior. Freezing is defined as the complete lack of movement in intervals of 5 seconds (Kim et al., 1993; Phillips & LeDoux, 1992; Bourtchouladze et al., 1994; 1998; Abel et al., 1997; Kogan et al., 1997). […]

`O=C(O)c1cc2sccc2[nH]1` [Compound 1, 4H-thieno[3,2-b]pyrrole-5-carboxylic acid] was tested, and the “PWT, ipsilateral side” value (Chung model rats; 30 mg/kg orally, 1 hour after dosing, before dosing 1.25±0.18 g) was 2.50 ± 0.33 g, the “PWT, contralateral side” value (Chung model rats; 30 mg/kg orally, 1 hour after dosing, pre-drug level 8.80±0.13 g) was 8.15 ± 0.45 g and the “PWT, ipsilateral side” value (Chung model rats; 30 mg/kg orally, 3 hours after dosing, before dosing 1.25±0.18 g) was 4.44 ± 0.27 g. The “PWT, contralateral side” value (Chung model rats; 30 mg/kg orally, 3 hours after dosing, pre-drug level 8.80±0.13 g) was 8.90 ± 0.15 g, the “PWT, ipsilateral side” value (Chung model rats; 30 mg/kg orally, 6 hours after dosing, before dosing 1.25±0.18 g) was 5.71 ± 0.66 g and the “PWT, contralateral side” value (Chung model rats; 30 mg/kg orally, 6 hours after dosing, pre-drug level 8.80±0.13 g) was 9.70 ± 0.77 g. The “PWT, ipsilateral side” value (Chung model rats; 30 mg/kg orally, 24 hours after dosing, before dosing 1.25±0.18 g) was 1.90 ± 0.38 g, the “PWT, contralateral side” value (Chung model rats; 30 mg/kg orally, 24 hours after dosing, pre-drug level 8.80±0.13 g) was 8.35 ± 0.50 g and the “Time after dosing at which the effect on PWT reached a peak” value (from here on “Time after dosing at which the effect”) (Chung model rats; 30 mg/kg orally, ipsilateral side) was 6 h. The “Activity in contextual fear conditioning” value (C57BL/6 male mice; 10 mg/kg P.O.) was “active”.
In the case of `O=C(O)c1cc2occc2[nH]1` [Compound 11, 4H-furo[3,2-b]pyrrole-5-carboxylic acid], the “Effect on PWT” value (Chung model rats; oral dose of 10 mg/kg) was “significantly elevated the PWT”, the “Time after dosing at which the effect” value (Chung model rats; oral dose of 10 mg/kg) was 6 h and the “Time after dosing at which the increase in PWT was first observed” value (Chung model rats; oral dose of 10 mg/kg) was 1 h. For the same compound, the “Freezing 24 hours after training” value (C57BL/6 male mice; 10 mg/kg p.o. 2 hrs prior to training, vehicle 33.3%+/−5.1%, n=10) was 69.7%+/−3.0%.
In the case of `NCC1(CC(=O)O)CCCCC1` [Gabapentin, reference compound], the “PWT, ipsilateral side” value (Chung model rats; gabapentin 100 mg/kg orally, 1 hour after dosing, before dosing 1.48±0.22 g) was 3.77 ± 0.42 g, the “PWT, contralateral side” value (Chung model rats; gabapentin 100 mg/kg orally, 1 hour after dosing, before dosing 9.67±0.68 g) was 10.11 ± 0.93 g and the “PWT, ipsilateral side” value (Chung model rats; gabapentin 100 mg/kg orally, 3 hours after dosing, before dosing 1.48±0.22 g) was 6.27 ± 0.76 g. The “PWT, contralateral side” value (Chung model rats; gabapentin 100 mg/kg orally, 3 hours after dosing, before dosing 9.67±0.68 g) was 10.11 ± 0.93 g, the “PWT, ipsilateral side” value (Chung model rats; gabapentin 100 mg/kg orally, 6 hours after dosing, before dosing 1.48±0.22 g) was 2.38 ± 0.29 g and the “PWT, contralateral side” value (Chung model rats; gabapentin 100 mg/kg orally, 6 hours after dosing, before dosing 9.67±0.68 g) was 8.29 ± 0.42 g. The “PWT, ipsilateral side” value (Chung model rats; gabapentin 100 mg/kg orally, 24 hours after dosing, before dosing 1.48±0.22 g) was 2.69 ± 0.60 g, the “PWT, contralateral side” value (Chung model rats; gabapentin 100 mg/kg orally, 24 hours after dosing, before dosing 9.67±0.68 g) was 9.40 ± 0.71 g and the “Time after dosing at which the effect” value (Chung model rats; gabapentin orally dosed at 100 mg/kg) was 3 h. For the same compound, the “Effect on PWT” value (Chung model rats; gabapentin orally dosed at 100 mg/kg, positive control) was “significantly increased the PWT”.
With `COc1ccc(C2CNC(=O)C2)cc1OC1CCCC1` (stereo not shown) [Rolipram, reference compound] the “Freezing 24 hours after training” value (C57BL/6 male mice; Rolipram 0.1 mg/kg i.p. 20 min prior to training, vehicle 27.2%+/−3.6%) was 44.4%+/−4.4%.
